Marks after values point to notes of the source that are not given here.
Experiments:
[1] = Glass transition temperature and heat quantity by differential scanning calorimetry (DSC); type: physicochemical; settings: 10 wt % in purified water, cooling −1° C./min, heating 5° C./min
Description: The glass transition temperature and the heat quantity were determined by differential scanning calorimetry (DSC). The measurement was performed with a cooling rate set to −1° C./min an d a heating rate set to 5° C./min.

human fibroblasts = assay: Influence on cell cycle (Click-iT Plus EdU cell proliferation assay); type: cell-based; settings: 2% addition; compared with no addition; FIG. 11
Description: The cells used were human fibroblasts.
The test groups were 1% addition groups and 2% addition groups of DMSO and HLS (OE2imC3C) vs. a control.
Cell cycle analysis was conducted using Click-iT® Plus EdU cell proliferation assay (Thermo Fisher Scientific Inc.) containing 5-ethynyl-2′-deoxyuridine (EdU) according to the manufacturer's protocol. The cells were incubated in 10 μM EdU for 1 hour, treated with trypsin, then fixed in 4% PFA, and labeled with Alexa Fluor 647 picolyl azide. The cells were stained with 4′,6-diamidino-2-phenylindole (DAPI) and analyzed with BD FACSAria™ III (BD Biosciences).

Wild-type zebrafish AB* = assay: Influence on development of zebrafish; type: in vivo; settings: for Survival rate: fertilized eggs cultured 1.5 to 24 hours
Description: All experiments were conducted based on a protocol approved by the animal experiment committee of Kanazawa University. Wild-type zebrafish AB* was raised at 28.5° C. with 14-hour light/10-hour dark cycles in a circulating water system. The medium used was E3 medium (5 mM NaCl, 0.17 mM KCl, 0.33 mM CaCl2, 0.33 mM MgSO4). The medium was supplemented with 1%, 2%, 5% or 10% DMSO or HLS (OE2imC3C). For each test group, eggs were fertilized and then cultured for 1.5 to 24 hours. The embryos thus cultured were washed with E3 medium twice and treated with 1-phenyl-2-thiourea (FUJIFILM Wako Pure Chemical Corp.) in order to prevent pigmentation. The embryos were stained with 0.6 mg/mL o-dianisidine (Tokyo Chemical Industry Co., Ltd.) for 15 minutes and fixed in 4% paraformaldehyde (FUJIFILM Wako Pure Chemical Corp.). The embryos were washed with phosphate-buffered saline containing 0.1% Tween (Sigma-Aldrich Co. LLC) twice. The survival rate was similar between DMSO and HLS (OE2imC3C) up to the 2% addition groups, whereas the survival rate differed largely therebetween in the 5% addition groups.

Human renal cell = assay: Cell freezing experiment 4 (slow freezing), viable cell count as ratio to OE2imC3C; type: cell-based; settings: −80° C., −1° C./min
Description: (§1) As for the cryopreservation solution, the aprotic zwitterion of each example was dissolved by the addition of purified water to prepare test solutions containing 5% by weight and 10% by weight of the aprotic zwitterion.
(§2) The cells to be frozen were centrifugally recovered by trypsin treatment and diluted with Dulbecco's modified Eagle medium (DMEM), and each cell concentration was measured. The types and cell concentrations of the cells are as follows. • Mouse skin fibroblasts 5.0×10^5 cells/100 μl • Human renal fat cells 5.0×10^5 cells/100 μl
(§3) Subsequently, the cells of each type were dispensed at 1 ml/tube to 1.5 ml tubes, centrifuged, suspended in 100 μl each of the cryopreservation solutions described above, and frozen at a cooling temperature of −80° C. at a cooling rate of −1° C./min using a cell freezing container Mr. Frosty®.
(§4) 1 ml of a medium was added to the cryopreservation vial for thawing, and a supernatant was removed by centrifugation. Subsequently, the cells obtained by centrifugation were resuspended in a medium, followed by the measurement of a viable cell count. The results are indicated by a ratio to the viable cell count of OE2imC3C.

Mouse skin fibroblast = assay: as above; type: cell-based; settings: −80° C., −1° C./min
Description: as §1, §2, §3, §4

| Heat quantity [1] [J/g] | Tg [1] [°C] | Compound | further results |
| --- | --- | --- | --- |
| -199.61 | −95.22 | Cn1cc[n+](CCCC(=O)[O-])c1 [Example C1imC3C] | – |
| -169.61 | −84.51 | C[n+]1ccn(CCCCCC(=O)[O-])c1 [Example C1imC5C] | viable cell count, ratio to the viable cell count of OE2imC3C (Human renal cell; 5 wt % in purified water): 1.94; viable cell count, ratio to the viable cell count of OE2imC3C (Human renal cell; 10 wt % in purified water): 0.72; viable cell count, ratio to the viable cell count of OE2imC3C (Mouse skin fibroblast; 5 wt % in purified water): 0.82; viable cell count, ratio to the viable cell count of OE2imC3C (Mouse skin fibroblast; 10 wt % in purified water): 1.09 |
| -198.66 | −75.3 | CCCCn1cc[n+](CCCC(=O)[O-])c1 [Example C4imC3C] | – |
| -183.73 | −74.59 | CCCCn1cc[n+](CCCCCC(=O)[O-])c1 [Example C4imC5C] | – |
| -187.42 | −84.05 | CCCCCCCCn1cc[n+](CCCC(=O)[O-])c1 [Example C8imC3C] | – |
| -188.49 | −86.07 | COCCn1cc[n+](CCCC(=O)[O-])c1 [OE1imC3C] | – |
| -190.82 | −83.34 | COCCOCCn1cc[n+](CCCCCC(=O)[O-])c1 [OE2imC5C] | – |

Second part, the compound before the results:

| Compound | Heat quantity [1] [J/g] | Tg [1] [°C] | further results |
| --- | --- | --- | --- |
| C=CCn1cc[n+](CCCC(=O)[O-])c1 [AimC3C] | -188.37 | −85 | – |
| C=CCn1cc[n+](CCCS(=O)(=O)[O-])c1 [AimC3S] | -213.16 | −85.76 | – |
| C=CCn1cc[n+](CCCCS(=O)(=O)[O-])c1 [AimC4S] | -210.34 | −86.07 | – |
| C[S+](C)[O-] [DMSO, dimethyl sulfoxide] | – | – | influence on cell cycle (G0/G1 phase, S phase) (human fibroblasts): prolonged the G0/G1 phase and drastically shortened the S phase; development of surviving fertilized eggs (abnormality) (Wild-type zebrafish AB*; 5 % v/v in E3 medium): did not normally develop; Survival rate (Wild-type zebrafish AB*; Concentration 1 % (v/v for DMSO, w/v for HLS) in E3 medium): 27/27; Survival rate (Wild-type zebrafish AB*; Concentration 2 % (v/v for DMSO, w/v for HLS) in E3 medium): 27/27; Survival rate (Wild-type zebrafish AB*; Concentration 5 % (v/v for DMSO, w/v for HLS) in E3 medium): 4/27*; Survival rate (Wild-type zebrafish AB*; Concentration 10 % (v/v for DMSO, w/v for HLS) in E3 medium): 0/27 |
| Cn1cc[n+](CCCS(=O)(=O)[O-])c1 [Example C1imC3S] | -173.36 | −88.88 | – |
| CCCCCCCC[n+]1ccn(CCCS(=O)(=O)[O-])c1 [Example C8imC3S] | – | – | viable cell count, ratio to the viable cell count of OE2imC3C (Human renal cell; 5 wt % in purified water): 0.00; viable cell count, ratio to the viable cell count of OE2imC3C (Human renal cell; 10 wt % in purified water): 0.33; viable cell count, ratio to the viable cell count of OE2imC3C (Mouse skin fibroblast; 5 wt % in purified water): 0.00; viable cell count, ratio to the viable cell count of OE2imC3C (Mouse skin fibroblast; 10 wt % in purified water): 0.04 |
| CCCCCCCCCCCCCC[N+](C)(C)CCCC(=O)[O-] [N1,1,14C3C] | -182.67 | −74.96 | viable cell count, ratio to the viable cell count of OE2imC3C (Human renal cell; 5 wt % in purified water): 0.59; viable cell count, ratio to the viable cell count of OE2imC3C (Human renal cell; 10 wt % in purified water): 0.56; viable cell count, ratio to the viable cell count of OE2imC3C (Mouse skin fibroblast; 5 wt % in purified water): 0.58; viable cell count, ratio to the viable cell count of OE2imC3C (Mouse skin fibroblast; 10 wt % in purified water): 0.77 |
| COCCOCCn1cc[n+](CCCS(=O)(=O)[O-])c1 [OE2imC3S] | -190.84 | −85.48 | – |
| O=C([O-])CCC[n+]1ccccc1 [PyC3C] | -182.59 | −90.35 | – |
| C[N+]1(CCCC(=O)[O-])CCCC1 [PyrrC3C] | -188.06 | −91.85 | – |
| C=Cn1cc[n+](CCCC(=O)[O-])c1 [VimC3C] | -182.17 | −85.74 | – |
| C=Cn1cc[n+](CCCS(=O)(=O)[O-])c1 [VimC3S] | -170.72 | −81.06 | – |

Source: US12484574B2, “Agent for promoting undifferentiation and cryoprotective agent using aprotic zwitterion” (JAPAN SCIENCE AND TECHNOLOGY AGENCY, priority 2019, dated 2025)
